Experimental data published in patent US20170334899A1, “AMINO-SUBSTITUTED ISOTHIAZOLES” (Bayer Pharma Aktiengesellschaft, priority 2014, published 2017).

Tests used:
HeLa = experiment: Proliferation assay (crystal violet), HeLa; assay type: cell-based; details: Homo sapiens, HeLa, 96 h, HeLa cells; 4 days incubation; crystal violet staining; read-out: IC50 inhibition of proliferation, HeLa
Outline: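 Crystal violet proliferation readout, 4-day compound incubation, 0.001–10 μM, final DMSO 0.5%. Zero-point plate stained at time of dosing set as 0%, untreated control as 100%; IC50 via 4-parameter fit.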

CDK2/CycE = molecular target: T1, CDK2/CycE (Homo sapiens, UniProt P24941); experiment: CDK2/CycE kinase assay (TR-FRET); assay type: biochemical; details: avg, read-out: CDK2 avg (IC50 [mol/l])
T1 construct: GST; purchased ProQinase GmbH (Freiburg, Germany); host or cells: insect cells (Sf9)
Outline: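 Read-out is a TR-FRET 665/620 nm emission ratio from EDTA-stopped reactions detected with anti-pRB(pSer807/pSer811), Eu-labelled anti-mouse IgG and streptavidin-XL665, scaled between no-enzyme and uninhibited wells. Reaction: Sf9-expressed GST-CDK2/GST-CycE, 15 min compound preincubation, 10 μM ATP, 0.75 μM biotin-peptide, 25 min, 22° C., pH 8.0 Tris buffer.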

Row | Compound | IC50 (HeLa) [µM] | IC50 (CDK2/CycE) [µM]
1 | Cc1nsc(Nc2cnc(C(F)(F)F)cn2)c1C(=O)Nc1cccc(S(C)(=O)=O)c1 [Example 195, 3-methyl-N-[3-(methylsulfonyl)phenyl]-5-{[5-(trifluoromethyl)pyrazin-2-yl]amino}-1,2-thiazole-4-carboxamide] | 3.1 | > 20
2 | Cc1nsc(Nc2cncc(C(F)(F)F)n2)c1C(=O)Nc1ccc(OCCN)nc1 [Example 196, N-[6-(2-aminoethoxy)pyridin-3-yl]-3-methyl-5-{[6-(trifluoromethyl)pyrazin-2-yl]amino}-1,2-thiazole-4-carboxamide] | > 10 | > 20
3 | Cc1nsc(Nc2cnc(C(F)(F)F)cn2)c1C(=O)Nc1ccc(OCCN)nc1 [Example 197, N-[6-(2-aminoethoxy)pyridin-3-yl]-3-methyl-5-{[5-(trifluoromethyl)pyrazin-2-yl]amino}-1,2-thiazole-4-carboxamide] | 7.5 | > 20
4 | Cc1nsc(Nc2cnc3ccccc3n2)c1C(=O)Nc1ccc(OCCC(=O)OC(C)(C)C)nc1 [Example 198, tert-butyl 3-{[5-({[3-methyl-5-(quinoxalin-2-ylamino)-1,2-thiazol-4-yl]carbonyl}amino)pyridin-2-yl]oxy}propanoate] | 6.7 | > 20
5 | Cc1nsc(Nc2ccc(C#N)cn2)c1C(=O)Nc1ccc(OCCC(=O)OC(C)(C)C)nc1 [Example 199, tert-butyl 3-({5-[({5-[(5-cyanopyridin-2-yl)amino]-3-methyl-1,2-thiazol-4-yl}carbonyl)amino]pyridin-2-yl}oxy)propanoate] | 8.7 | > 20
6 | Cc1nsc(Nc2cc(C#N)ccn2)c1C(=O)Nc1ccc(OCCC(=O)OC(C)(C)C)nc1 [Example 200, tert-butyl 3-({5-[({5-[(4-cyanopyridin-2-yl)amino]-3-methyl-1,2-thiazol-4-yl}carbonyl)amino]pyridin-2-yl}oxy)propanoate] | > 10 | > 20
7 | Cc1nsc(Nc2cnc3ccccc3n2)c1C(=O)Nc1ccc(C(N)=O)c(F)c1 [Example 201, N-(4-carbamoyl-3-fluorophenyl)-3-methyl-5-(quinoxalin-2-ylamino)-1,2-thiazole-4-carboxamide] | > 10 | > 20
8 | Cc1nsc(Nc2cnc3ccccc3n2)c1C(=O)Nc1ccc(F)c(C(N)=O)c1 [Example 202, N-(3-carbamoyl-4-fluorophenyl)-3-methyl-5-(quinoxalin-2-ylamino)-1,2-thiazole-4-carboxamide] | > 10 | > 20
9 | Cc1nsc(Nc2ccc(C#N)cn2)c1C(=O)Nc1ccc(F)c(C(N)=O)c1 [Example 203, N-(3-carbamoyl-4-fluorophenyl)-5-[(5-cyanopyridin-2-yl)amino]-3-methyl-1,2-thiazole-4-carboxamide] | > 10 | > 20
10 | Cc1nsc(Nc2cncc(C(F)(F)F)n2)c1C(=O)Nc1ccc(F)c(C(N)=O)c1 [Example 204, N-(3-carbamoyl-4-fluorophenyl)-3-methyl-5-{[6-(trifluoromethyl)pyrazin-2-yl]amino}-1,2-thiazole-4-carboxamide] | > 10 | > 20
11 | CC(=O)Nc1cc(NC(=O)c2c(C)nsc2Nc2cnccn2)ccc1F [Example 205, N-(3-acetamido-4-fluorophenyl)-3-methyl-5-(pyrazin-2-ylamino)-1,2-thiazole-4-carboxamide] | > 10 | > 20
12 | CC(=O)Nc1cc(NC(=O)c2c(C)nsc2Nc2cnc(C(F)(F)F)cn2)ccc1F [Example 206, N-(3-acetamido-4-fluorophenyl)-3-methyl-5-{[5-(trifluoromethyl)pyrazin-2-yl]amino}-1,2-thiazole-4-carboxamide] | 5.1 | > 20
13 | CNC(=O)c1ccc(NC(=O)c2c(C)nsc2Nc2cnc3ccccc3n2)cc1F [Example 207, N-[3-fluoro-4-(methylcarbamoyl)phenyl]-3-methyl-5-(quinoxalin-2-ylamino)-1,2-thiazole-4-carboxamide] | > 10 | > 20
14 | CNC(=O)c1ccc(NC(=O)c2c(C)nsc2Nc2ccc(C#N)cn2)cc1F [Example 208, 5-[(5-cyanopyridin-2-yl)amino]-N-[3-fluoro-4-(methylcarbamoyl)phenyl]-3-methyl-1,2-thiazole-4-carboxamide] | 6 | > 20
15 | Cc1nsc(Nc2cncc(C(F)(F)F)n2)c1C(=O)Nc1ccc(OCCCN)nc1 [Example 209, N-[6-(3-aminopropoxy)pyridin-3-yl]-3-methyl-5-{[6-(trifluoromethyl)pyrazin-2-yl]amino}-1,2-thiazole-4-carboxamide] | > 10 | > 20
16 | CNS(=O)(=O)c1ccc(NC(=O)c2c(C)nsc2Nc2cc(C#N)ccn2)cc1 [Example 210, 5-[(4-cyanopyridin-2-yl)amino]-3-methyl-N-[4-(methylsulfamoyl)phenyl]-1,2-thiazole-4-carboxamide] | 1.9 | > 20
17 | CNS(=O)(=O)c1ccc(NC(=O)c2c(C)nsc2Nc2cncc(C(F)(F)F)n2)cc1 [Example 211, 3-methyl-N-[4-(methylsulfamoyl)phenyl]-5-{[6-(trifluoromethyl)pyrazin-2-yl]amino}-1,2-thiazole-4-carboxamide] | 9.9 | 15
18 | CNS(=O)(=O)c1ccc(NC(=O)c2c(C)nsc2Nc2cnc(C(F)(F)F)cn2)cc1 [Example 212, 3-methyl-N-[4-(methylsulfamoyl)phenyl]-5-{[5-(trifluoromethyl)pyrazin-2-yl]amino}-1,2-thiazole-4-carboxamide] | > 10 | > 20
19 | Cc1nsc(Nc2cnc(C(F)(F)F)cn2)c1C(=O)Nc1ccc(C(=O)NCCN2CCCC(F)C2)cc1 (centres unmarked) [Example 213, N-(4-{[2-(3-fluoropiperidin-1-yl)ethyl]carbamoyl}phenyl)-3-methyl-5-{[5-(trifluoromethyl)pyrazin-2-yl]amino}-1,2-thiazole-4-carboxamide] | 2.5 | > 20
20 | Cc1nsc(Nc2cnc(C(F)(F)F)cn2)c1C(=O)Nc1ccc(OCCNC(=O)OC(C)(C)C)c(F)c1 [Example 215, tert-butyl [2-(2-fluoro-4-{[(3-methyl-5-{[5-(trifluoromethyl)pyrazin-2-yl]amino}-1,2-thiazol-4-yl)carbonyl]amino}phenoxy)ethyl]carbamate] | 0.14 | > 20
21 | Cc1nsc(Nc2cncc(C(F)(F)F)n2)c1C(=O)Nc1ccc(OCCNC(=O)OC(C)(C)C)c(F)c1 [Example 216, tert-butyl [2-(2-fluoro-4-{[(3-methyl-5-{[6-(trifluoromethyl)pyrazin-2-yl]amino}-1,2-thiazol-4-yl)carbonyl]amino}phenoxy)ethyl]carbamate] | 0.52 | > 20
22 | Cc1nsc(Nc2cnc(C(F)(F)F)cn2)c1C(=O)Nc1ccc(OC2CCN(C(=O)OC(C)(C)C)CC2)c(F)c1 [Example 217, tert-butyl 4-(2-fluoro-4-{[(3-methyl-5-{[5-(trifluoromethyl)pyrazin-2-yl]amino}-1,2-thiazol-4-yl)carbonyl]amino}phenoxy)piperidine-1-carboxylate] | 0.17 | > 20
23 | Cc1nsc(Nc2cncc(C(F)(F)F)n2)c1C(=O)Nc1ccc(OC2CCN(C(C)C)CC2)nc1 [Example 218, N-{6-[(1-isopropylpiperidin-4-yl)oxy]pyridin-3-yl}-3-methyl-5-{[6-(trifluoromethyl)pyrazin-2-yl]amino}-1,2-thiazole-4-carboxamide] | 9.9 | > 20
24 | Cc1nsc(Nc2cncc(C(F)(F)F)n2)c1C(=O)Nc1ccc(OC2CCN(C)CC2)nc1 [Example 219, 3-methyl-N-{6-[(1-methylpiperidin-4-yl)oxy]pyridin-3-yl}-5-{[6-(trifluoromethyl)pyrazin-2-yl]amino}-1,2-thiazole-4-carboxamide] | > 10 | > 20
25 | Cc1nsc(Nc2cnc(C(F)(F)F)cn2)c1C(=O)Nc1ccc(OC2CCN(C)CC2)nc1 [Example 220, 3-methyl-N-{6-[(1-methylpiperidin-4-yl)oxy]pyridin-3-yl}-5-{[5-(trifluoromethyl)pyrazin-2-yl]amino}-1,2-thiazole-4-carboxamide] | 6.2 | > 20
26 | Cc1nsc(Nc2cnc(C(F)(F)F)cn2)c1C(=O)Nc1ccc(OCCN)c(F)c1 [Example 221, 3-N-[4-(2-aminoethoxy)-3-fluorophenyl]-3-methyl-5-{[5-(trifluoromethyl)pyrazin-2-yl]amino}-1,2-thiazole-4-carboxamide] | 2.5 | > 20
27 | Cc1nsc(Nc2cncc(C(F)(F)F)n2)c1C(=O)Nc1ccc(C(=O)NC2CCN(C(=O)OC(C)(C)C)CC2)cc1 [Example 222, tert-butyl 4-[(4-{[(3-methyl-5-{[6-(trifluoromethyl)pyrazin-2-yl]amino}-1,2-thiazol-4-yl)carbonyl]amino}benzoyl)amino] piperidine-1-carboxylate] | 6.2 | > 20
28 | Cc1nsc(Nc2cncc(C(F)(F)F)n2)c1C(=O)Nc1ccc(OC2CCN(CCF)CC2)c(F)c1 [Example 223, N-(3-fluoro-4-{[1-(2-fluoroethyl)piperidin-4-yl]oxy}phenyl)-3-methyl-5-{[6-(trifluoromethyl)pyrazin-2-yl]amino}-1,2-thiazole-4-carboxamide] | 0.76 | > 20
